EPA's ToxRefDB 2

Key:
rat [1] = conditions: Subchronic oral toxicity in rodents, Gavage/Intubation, dose end: 64 day, group: systemic, systemic / in life observation / body weight / body weight + systemic / in life observation / clinical signs / motor activity + systemic / …
rat [2] = conditions: Prenatal developmental toxicity study, Oral, Gavage/Intubation, dose end: 18 GD
rat [3] = conditions: Sub-acute repeat dose toxicity, sprague dawley, Oral, Gavage/Intubation, dose end: 22 day, group: systemic
rat [4] = conditions: Combined chronic toxicity/carcinogenicity; sprague dawley; Oral; Feed; dose end: 104 week; group: systemic; systemic / in life observation / body weight / body weight + systemic / in life observation / body weight / body weight gain + systemic / in…
rat [5] = conditions: Subchronic oral toxicity in rodents, sprague dawley, Feed, dose end: 13 week, group: systemic
mouse = conditions: Carcinogenicity; cd1; Oral; Feed; dose end: 78 week; group: systemic; systemic / in life observation / body weight / body weight + systemic / in life observation / body weight / body weight gain
dog = conditions: Sub-acute repeat dose toxicity; beagle; Inhalation; Whole-Body; dose end: 14 day; group: systemic; systemic / in life observation / food consumption / food consumption + systemic / pathology microscopic / nose / [other] + systemic / …
rat [6] = conditions: Sub-acute repeat dose toxicity; Inhalation; Whole-Body; dose end: 14 day; group: systemic; systemic / hematology / blood clotting / blood clotting - activated partial thromboplastin time + systemic / in life observation / body …
primate [7] = conditions: Subchronic oral toxicity in nonrodent, Gavage/Intubation, dose end: 48 day, group: systemic
primate [8] = conditions: Sub-acute repeat dose toxicity; Oral; Gavage/Intubation; dose end: 5 day; group: systemic; systemic / in life observation / clinical signs / emesis + systemic / in life observation / food consumption / food consumption
rat [9] = conditions: Sub-acute repeat dose toxicity, sprague dawley, Oral, Gavage/Intubation, dose end: 14 day, group: systemic
rat [10] = conditions: Fertility (Segment I), sprague dawley, Oral, Gavage/Intubation, dose end: 1 generation, group: parental
rat [11] = conditions: Sub-acute repeat dose toxicity, sprague dawley, Oral, Gavage/Intubation, dose end: 12 day, group: systemic
rat [12] = conditions: Prenatal developmental toxicity study, sprague dawley, Oral, Gavage/Intubation, dose end: 18 GD
primate [13] = conditions: Sub-acute repeat dose toxicity, Oral, Gavage/Intubation, dose end: 9 day, group: systemic
rabbit [14] = conditions: Sub-acute repeat dose toxicity, new zealand white, Oral, Gavage/Intubation, dose end: 13 day
rabbit [15] = conditions: Prenatal developmental toxicity study; new zealand white; Oral; Gavage/Intubation; dose end: 19 GD; group: maternal; systemic / in life observation / body weight / body weight gain + systemic / in life observation / clinical signs / reduced activity + …
rat [16] = conditions: Subchronic oral toxicity in rodents, sprague dawley, Gavage/Intubation, dose end: 42 day, group: systemic
primate [17] = conditions: Subchronic oral toxicity in nonrodent, Gavage/Intubation, dose end: 42 day, group: systemic, systemic / in life observation / body weight / body weight + systemic / in life observation / clinical signs / emesis + systemic / in life …
rabbit [18] = conditions: Sub-acute repeat dose toxicity, Oral, Gavage/Intubation, dose end: 5 day, group: systemic
rat [19] = conditions: Fertility (Segment I), sprague dawley, Oral, Gavage/Intubation, dose end: 1 generation, group: parental; remark: listed apart in the source
rat [20] = conditions: Sub-acute repeat dose toxicity, sprague dawley, Oral, Gavage/Intubation, dose end: 4 week, group: systemic
rabbit [21] = conditions: Prenatal developmental toxicity study, himalayan, Oral, Gavage/Intubation, dose end: 18 GD, group: maternal
rat [22] = conditions: Prenatal developmental toxicity study, sprague dawley, Oral, Gavage/Intubation, dose end: 17 GD
[23] = group: developmental, developmental / developmental malformation / bone / fused + developmental / developmental malformation / bone / delayed ossification + …
[24] = group: maternal, systemic / in life observation / body weight / body weight + systemic / in life observation / body weight / body weight gain + systemic / in…
[25] = group: maternal, systemic / in life observation / body weight / body weight gain + systemic / in life observation / food consumption / food consumption
[26] = systemic / in life observation / body weight / body weight + systemic / in life observation / body weight / body weight gain + systemic / in…
[27] = systemic / in life observation / body weight / body weight gain
[28] = systemic / in life observation / clinical signs / emesis + systemic / pathology microscopic / peritoneum / atrophy
[29] = systemic / in life observation / clinical signs / emesis + systemic / pathology microscopic / peritoneum / atrophy + systemic / in life …
[30] = systemic / in life observation / food consumption / food consumption
[31] = systemic / in life observation / food consumption / food consumption + systemic / pathology gross / intestine large / dilatation + systemic…
[32] = systemic / in life observation / body weight / body weight + systemic / in life observation / clinical signs / altered breathing rate + …
[33] = systemic / in life observation / body weight / body weight gain + systemic / in life observation / clinical signs / respiration (rales) + …
[34] = systemic / in life observation / body weight / body weight gain + systemic / in life observation / clinical signs / salivation + systemic / …
[35] = group: developmental, developmental / developmental malformation / eye / anophthalmia + developmental / developmental malformation / eye / microphthalmia + …
[36] = systemic / hematology / lymphocyte / lymphocyte
[37] = systemic / in life observation / clinical signs / emesis + systemic / in life observation / clinical signs / salivation + systemic / …
[38] = group: maternal, reproductive / offspring survival early / litter viability other / litter viability
[39] = group: systemic, systemic / in life observation / body weight / body weight + systemic / in life observation / clinical signs / inappetence
[40] = group: systemic, systemic / in life observation / body weight / body weight + systemic / in life observation / clinical signs / inappetence + systemic / in …
[41] = systemic / hematology / erythrocyte (rbc) count differential / erythrocyte (rbc) + systemic / hematology / hemoglobin (hgb) / hemoglobin (…
[42] = systemic / in life observation / clinical signs / abnormal feces
[43] = systemic / in life observation / clinical signs / abnormal respiratory sounds + systemic / in life observation / clinical signs / drooping …
[44] = systemic / hematology / mean corpuscular (cell) volume (mcv) / mean corpuscular (cell) volume (mcv) + systemic / pathology microscopic / …
[45] = systemic / in life observation / body weight / body weight gain + systemic / in life observation / food consumption / food consumption
[46] = group: developmental, developmental / developmental malformation / general / crown-rump length + systemic / in life observation / body weight / fetal weight
[47] = group: maternal, reproductive / reproductive performance / resorptions / resorptions + systemic / in life observation / body weight / body weight + systemic…

FC(F)(F)c1ccc2c(c1)[C@H]1CNC[C@@H]2C1
LEL (rat [1]): 3 mg/kg/day | LOAEL (rat [1]): > 3 mg/kg/day | NEL (rat [1]): 1 mg/kg/day | NOAEL (rat [1]): ≥ 3 mg/kg/day | LEL (rat [2]; group: developmental, developmental / developmental malformation / bone / delayed ossification + developmental / developmental malformation / bone / fused + …): 3 mg/kg/day | LOAEL (rat [2]; [23]): > 7 mg/kg/day | NOAEL (rat [2]; [23]): ≥ 7 mg/kg/day | LOAEL (rat [2]; [24]): > 7 mg/kg/day | NOAEL (rat [2]; [24]): ≥ 7 mg/kg/day | LEL (rat [2]; [25]): 1 mg/kg/day | NEL (rat [2]; [25]): < 1 mg/kg/day | LOAEL (rat [3]; [26]): > 7 mg/kg/day | NOAEL (rat [3]; [26]): ≥ 7 mg/kg/day | LEL (rat [3]; [27]): 1 mg/kg/day | NEL (rat [3]; [27]): < 1 mg/kg/day

CCCCCCCCCCCC[N+](C)(C)Cc1ccccc1.[Cl-]
LEL (rat [4]): 88 mg/kg/day | LOAEL (rat [4]): 88 mg/kg/day | NEL (rat [4]): 44 mg/kg/day | NOAEL (rat [4]): 44 mg/kg/day | LOAEL (rat [5]; systemic / in life observation / body weight / body weight + systemic / in life observation / body weight / body weight gain): 62 mg/kg/day | NEL (rat [5]; [26]): 6.3 mg/kg/day | NOAEL (rat [5]; [26]): 31.2 mg/kg/day | LEL (rat [5]; systemic / in life observation / food consumption / food consumption + systemic / pathology gross / stomach / discolored): 31.2 mg/kg/day | LEL (mouse): 229 mg/kg/day | LOAEL (mouse): 229 mg/kg/day | NEL (mouse): 73.4 mg/kg/day | NOAEL (mouse): 73.4 mg/kg/day

CN(C[C@@H](CC[N+]12CCC(C3CCCCC3)(CC1)CC2)c1ccc(Cl)c(Cl)c1)C(=O)c1cc(C(F)(F)F)cc(C(F)(F)F)c1.CS(=O)(=O)[O-]
LEL (dog): 2 mg/kg/day | LOAEL (dog): > 2 mg/kg/day | NEL (dog): < 2 mg/kg/day | NOAEL (dog): ≥ 2 mg/kg/day | LEL (rat [6]): 2 mg/kg/day | LOAEL (rat [6]): > 2 mg/kg/day | NEL (rat [6]): < 2 mg/kg/day | NOAEL (rat [6]): ≥ 2 mg/kg/day

C[C@@H](Oc1ccc(CNC(=O)c2cccnc2Oc2ccc3c(c2)OCO3)c(F)c1)C(=O)O
LEL (primate [7]; [28]): 5 mg/kg/day | NEL (primate [7]; [28]): < 5 mg/kg/day | LOAEL (primate [7]; [29]): > 30 mg/kg/day | NOAEL (primate [7]; [29]): ≥ 30 mg/kg/day | LEL (primate [8]): 30 mg/kg/day | LOAEL (primate [8]): > 30 mg/kg/day | NEL (primate [8]): < 30 mg/kg/day | NOAEL (primate [8]): ≥ 30 mg/kg/day | LEL (rat [9]; [30]): 120 mg/kg/day | NEL (rat [9]; systemic / in life observation / food consumption / food consumption + systemic / pathology gross / intestine large / dilatation): 30 mg/kg/day | LOAEL (rat [9]; [31]): > 750 mg/kg/day | NOAEL (rat [9]; [31]): ≥ 750 mg/kg/day | LOAEL (rat [10]; [32]): > 1000 mg/kg/day | NEL (rat [10]; [32]): 50 mg/kg/day | NOAEL (rat [10]; [32]): ≥ 1000 mg/kg/day | LEL (rat [10]; systemic / in life observation / body weight / body weight + systemic / in life observation / clinical signs / drooping eyelids (ptosis) + …): 400 mg/kg/day | LOAEL (rat [11]; [33]): > 1000 mg/kg/day | NOAEL (rat [11]; [33]): ≥ 1000 mg/kg/day | LEL (rat [11]; [34]): 400 mg/kg/day | NEL (rat [11]; [34]): < 400 mg/kg/day | LEL (rat [12]; [35]): 400 mg/kg/day | LOAEL (rat [12]; [35]): > 1000 mg/kg/day | NOAEL (rat [12]; [35]): ≥ 1000 mg/kg/day | LOAEL (rat [12]; [24]): > 1000 mg/kg/day | NEL (rat [12]; [24]): 120 mg/kg/day | NOAEL (rat [12]; [24]): ≥ 1000 mg/kg/day | LEL (rat [12]; group: maternal, systemic / in life observation / clinical signs / salivation + systemic / in life observation / food consumption / food consumption + …): 400 mg/kg/day | LEL (primate [13]; [36]): 100 mg/kg/day | NEL (primate [13]; [36]): < 100 mg/kg/day | LOAEL (primate [13]; [37]): > 1000 mg/kg/day | NOAEL (primate [13]; [37]): ≥ 1000 mg/kg/day | LEL (rabbit [14]; [38]): 600 mg/kg/day | LOAEL (rabbit [14]; [38]): > 600 mg/kg/day | NEL (rabbit [14]; [38]): 400 mg/kg/day | NOAEL (rabbit [14]; [38]): ≥ 600 mg/kg/day | LEL (rabbit [14]; [39]): 120 mg/kg/day | NEL (rabbit [14]; [39]): < 120 mg/kg/day | LOAEL (rabbit [14]; [40]): > 600 mg/kg/day | NOAEL (rabbit [14]; [40]): ≥ 600 mg/kg/day | LEL (rabbit [15]): 200 mg/kg/day | LOAEL (rabbit [15]): > 200 mg/kg/day | NEL (rabbit [15]): 60 mg/kg/day | NOAEL (rabbit [15]): ≥ 200 mg/kg/day | LOAEL (rat [16]; [41]): > 2000 mg/kg/day | NOAEL (rat [16]; [41]): ≥ 2000 mg/kg/day | NEL (rat [16]; systemic / hematology / neutrophils / neutrophils + systemic / in life observation / body weight / body weight + systemic / in life …): 10 mg/kg/day | LEL (rat [16]; systemic / pathology microscopic / mesentery / infiltration cellular): 50 mg/kg/day | LEL (primate [17]): 200 mg/kg/day | LOAEL (primate [17]): > 1000 mg/kg/day | NEL (primate [17]): 30 mg/kg/day | NOAEL (primate [17]): ≥ 1000 mg/kg/day | LOAEL (rabbit [18]; [26]): > 750 mg/kg/day | NOAEL (rabbit [18]; [26]): ≥ 750 mg/kg/day | LEL (rabbit [18]; [42]): 120 mg/kg/day | NEL (rabbit [18]; [42]): < 120 mg/kg/day | LOAEL (rat [19]; [43]): > 1000 mg/kg/day | NEL (rat [19]; [43]): 50 mg/kg/day | NOAEL (rat [19]; [43]): ≥ 1000 mg/kg/day | LEL (rat [19]; systemic / in life observation / clinical signs / reduced activity + systemic / in life observation / clinical signs / salivation): 400 mg/kg/day

CCN(CC)C(=O)c1cc(S(=O)(=O)Cc2ccccc2)c(N2CCC(c3ccccc3)CC2)cc1N(CC)CCN(C)C [HMR1171]
NEL (rat [20]; systemic / clinical chemistry / alkaline phosphatase (alp/alk) / alkaline phosphatase (alp/alk) + systemic / clinical chemistry / …): 5 mg/kg/day | LEL (rat [20]; [44]): 20 mg/kg/day | LOAEL (rat [20]; [44]): 20 mg/kg/day | NOAEL (rat [20]; [44]): 5 mg/kg/day | LOAEL (rabbit [21]; [45]): > 240 mg/kg/day | NEL (rabbit [21]; [45]): 60 mg/kg/day | NOAEL (rabbit [21]; [45]): ≥ 240 mg/kg/day | LEL (rabbit [21]; [30]): 120 mg/kg/day | LEL (rat [22]; [46]): 60 mg/kg/day | LOAEL (rat [22]; [46]): 60 mg/kg/day | NEL (rat [22]; [46]): 10 mg/kg/day | NOAEL (rat [22]; [46]): 10 mg/kg/day | LEL (rat [22]; [47]): 60 mg/kg/day | LOAEL (rat [22]; [47]): 60 mg/kg/day | NEL (rat [22]; [47]): 10 mg/kg/day | NOAEL (rat [22]; [47]): 10 mg/kg/day
